Type in all cases: physicochemical
Data set [1] in a line: Viscosity of aqueous solutions. The settings on record: 30°C, 300mg I/ml.
Another data set can be described thus: Iodine content.
A short description of data set [2]: Osmolality of aqueous solutions. Conditions: 300mg I/ml.

`COCC(=O)Nc1c(I)c(C(=O)NCC(=O)Nc2c(I)c(C(=O)NC(CO)C(O)CO)c(I)c(C(=O)NC(CO)C(O)CO)c2I)c(I)c(C(=O)NC(CO)C(O)CO)c1I` (stereo not drawn) [EXAMPLE 7, N,N'-bis-(1-hydroxymethyl-2,3-dihydroxypropyl)-5-{3-[N-(1-hydroxymethyl-2,3-dihydroxypropyl)carbamoyl]-5-methoxyacetamido-2,4,6-triiodobenzoylaminoacetamido}-2,4,6-triiodo isophthalamide]: in data set [1], the “Viscosity mPa s (30°C) at 300mg I/ml” value is 10,5 mPa s. The “% Iodine” value in the data set “Iodine content” is recorded as 49,5%. The “Osmolality mosm/kg at 300mg I/ml” value in data set [2] is 147 mosm/kg.

For `CN(CC(=O)N(C)c1c(I)c(C(=O)NC(CO)C(O)CO)c(I)c(C(=O)NC(CO)C(O)CO)c1I)C(=O)c1c(I)c(NC(=O)CO)c(I)c(C(=O)NCC(O)CO)c1I` (stereo not drawn) [EXAMPLE 8, N,N'-bis-(1-hydroxymethyl-2,3-dihydroxypropyl)-5-{3-[N-(2,3-dihydroxypropyl)carbamoyl]-5-hydroxyacetamido-2,4,6-triiodobenzoyl-N-methylaninoacetyl-N-nethylamino}-2,4,6-tri iodoisophthalamide], the “Viscosity mPa s (30°C) at 300mg I/ml” value in data set [1] is 7,6 mPa s. Moreover, the “% Iodine” value in the data set “Iodine content” is listed as 50%. Besides, the “Osmolality mosm/kg at 300mg I/ml” value in data set [2] came to 190 mosm/kg.

Consider `COCC(=O)Nc1c(I)c(C(=O)NC(CO)C(O)CO)c(I)c(C(=O)N(C)CC(=O)N(C)c2c(I)c(C(=O)NC(CO)C(O)CO)c(I)c(C(=O)NC(CO)C(O)CO)c2I)c1I` (stereo not drawn) [EXAMPLE 10, N,N'-bis-(1-hydroxymethyl-2,3-dihydroxypropyl)-5-{3-[N-(1-hydroxymethyl-2,3-dihydroxypropyl)carbamoyl]-5-methoxyacetamido-2,4,6-triiodobenzoyl-N-methylaminoacetyl-N-methylamino}-2,4,6-triiodoisophthalamide], for which, in data set [1], the “Viscosity mPa s (30°C) at 300mg I/ml” value is given as 8,9 mPa s. Also, in “Iodine content”, the “% Iodine” value is recorded as 48,6%. The “Osmolality mosm/kg at 300mg I/ml” value in data set [2] is reported as 204 mosm/kg.

For the compound `COCC(=O)Nc1c(I)c(C(=O)NCC(O)CO)c(I)c(C(=O)N(C)CC(=O)N(C)c2c(I)c(C(=O)NCC(O)CO)c(I)c(C(=O)NCC(O)CO)c2I)c1I` (stereo not drawn) [EXAMPLE 12, N,N'-bis-(2,3-dihydroxypropyl)-5-{3-[N-(2,3-dihydroxypropyl)carbamoyl]-5-methoxyacetamido-2,4,6-triiodobenzoyl -N-methylaminoacetyl-N-methylamino}-2,4,6-triiodoisophthalamide], in data set [1], the “Viscosity mPa s (30°C) at 300mg I/ml” value was 8,6 mPa s. For the same compound, in the data set “Iodine content”, the “% Iodine” value is recorded as 51,6%. For the same compound, in data set [2], the “Osmolality mosm/kg at 300mg I/ml” value came out at 130 mosm/kg.

With `O=C(CN(CC(O)CO)C(=O)c1c(I)c(NC(=O)CO)c(I)c(C(=O)NCC(O)CO)c1I)Nc1c(I)c(C(=O)NCC(O)CO)c(I)c(C(=O)NCC(O)CO)c1I` (stereo not drawn) [EXAMPLE 13, N,N'-bis-(2,3-dihydroxypropyl)-5-{3-[N-(2,3-dihydroxypropyl)carbamoyl]-5-hydroxyacetamido-2,4,6-triiodobenzoyl-N-(2,3-dihydroxypropyl)aminoacetamido}-2,4,6-triiodoisophthalamide], the “Viscosity mPa s (30°C) at 300mg I/ml” value in data set [1] is given as 7,2 mPa s. Besides, the “% Iodine” value in the data set “Iodine content” was 50,5%. Moreover, the “Osmolality mosm/kg at 300mg I/ml” value in data set [2] is recorded as 190 mosm/kg.

As to `COCC(=O)Nc1c(I)c(C(=O)NCC(O)CO)c(I)c(C(=O)N(CC(=O)Nc2c(I)c(C(=O)NCC(O)CO)c(I)c(C(=O)NCC(O)CO)c2I)CC(O)CO)c1I` (stereo not drawn) [EXAMPLE 15, N,N'-bis-(2,3-dihydroxypropyl)-5-{3-[N-(2,3-dihydroxypropyl)carbamoyl]-5-methoxyacetamido-2,4,6-triiodobenzoyl -N-(2,3-dihydroxypropyl)aminoacetamido}-2,4,6-triiodo isophthalamide], the “Viscosity mPa s (30°C) at 300mg I/ml” value in data set [1] is reported as 8,6 mPa s. In addition, in “Iodine content”, the “% Iodine” value turned out to be 50%. Moreover, in data set [2], the “Osmolality mosm/kg at 300mg I/ml” value stood at 162 mosm/kg.

On to `O=C(NCCO)c1c(I)c(C(=O)NCCO)c(I)c(N(CCO)C(=O)CN(CCO)C(=O)c2c(I)c(C(=O)NCC(O)CO)c(I)c(N(CCO)C(=O)CO)c2I)c1I` (stereo not drawn) [EXAMPLE 16, N,N'-bis-(2-hydroxyethyl)-5-{3-[N-(2,3-dihydroxypropyl)-carbamoyl]-5-hydroxyacetyl-N-(2-hydroxyethyl)amino-2,4,6-tri-iodobenzoyl-N-(2-hydroxyethyl)amino-acetyl-N-(2-hydroxyethyl)amino}-2,4,6-triiodoisophthalamide], for which, in data set [1], the “Viscosity mPa s (30°C) at 300mg I/ml” value is 7,6 mPa s. The “% Iodine” value in “Iodine content” was 50,5%. The “Osmolality mosm/kg at 300mg I/ml” value in data set [2] was 131 mosm/kg.

With `COCC(=O)Nc1c(I)c(C(=O)NCC(O)CO)c(I)c(C(=O)N(CCO)CC(=O)Nc2c(I)c(C(=O)NC(CO)C(O)CO)c(I)c(C(=O)NC(CO)C(O)CO)c2I)c1I` (stereo not drawn) [EXAMPLE 22, N,N'-bis-(1-hydroxymethyl-2,3-dihydroxypropyl)-5-{3-[N-(2,3-dihydroxypropyl)carbamoyl]-5-methoxyacetamido-2,4,6-triiodobenzoyl-N-(2-hydroxyethyl)aminoacetamido}-2,4,6-triiodo isophthalamide], in data set [1], the “Viscosity mPa s (30°C) at 300mg I/ml” value is reported as 10,0 mPa s. Also, the “% Iodine” value in the data set “Iodine content” was found to be 49%. In data set [2], the “Osmolality mosm/kg at 300mg I/ml” value stood at 118 mosm/kg.

As for `CC(=O)Nc1c(I)c(C(=O)NCC(O)CO)c(I)c(C(=O)N(CC(=O)N(C)c2c(I)c(C(=O)NCC(O)CO)c(I)c(C(=O)NCC(O)CO)c2I)CC(O)CO)c1I` (stereo not drawn) [EXAMPLE 23, N,N -bis-(2,3-dihydroxypropyl)-5-{3-[N-(2,3-dihydroxypropyl)carbamoyl]-5-acetamido-2,4,6-triiodobenzoyl-N-(2,3-dihydroxypropyl)aminoacetyl-N-methylamino}-2,4,6-triiodoisophthalamide], the “Viscosity mPa s (30°C) at 300mg I/ml” value in data set [1] is reported as 7,9 mPa s. Moreover, the “% Iodine” value in “Iodine content” is 50,5%. For the same compound, in data set [2], the “Osmolality mosm/kg at 300mg I/ml” value is 162 mosm/kg.

As for `CN(CC(=O)N(C)c1c(I)c(C(=O)N(C)CC(O)CO)c(I)c(C(=O)N(C)CC(O)CO)c1I)C(=O)c1c(I)c(NC(=O)CO)c(I)c(C(=O)NCC(O)CO)c1I` (stereo not drawn) [EXAMPLE 24, N,N'-bis-(2,3-dihydroxypropyl)-N,N'-dimethyl-5-{3-[N-(2,3-dihydroxypropyl)carbamoyl]-5-hydroxyacetamido-2,4,6-triiodobenzoyl-N-methylaminoacetyl-N-methylamino}-triiodo isophthalamide], the “Viscosity mPa s (30°C) at 300mg I/ml” value in data set [1] is listed as 7,1 mPa s. Besides, the “% Iodine” value in the data set “Iodine content” is 51,1%. Moreover, the “Osmolality mosm/kg at 300mg I/ml” value in data set [2] is recorded as 165 mosm/kg.

Consider `COCC(=O)Nc1c(I)c(C(=O)NCC(O)CO)c(I)c(C(=O)N(C)CC(=O)N(C)c2c(I)c(C(=O)N(C)CC(O)CO)c(I)c(C(=O)N(C)CC(O)CO)c2I)c1I` (stereo not drawn) [EXAMPLE 25, N,N'-bis-(2,3-dihydroxypropyl)-N,N'-dimethyl-5-{3-[N-(2,3-dihydroxypropyl)carbamoyl]-5-methoxyacetamido-2,4,6-triiodobenzoyl-N-methylaminoacetyl-N-methylamino}-2,4,6-triiodo isophthalamide], for which, in data set [1], the “Viscosity mPa s (30°C) at 300mg I/ml” value was 8,0 mPa s. The “% Iodine” value in “Iodine content” is 50,6%. Besides, the “Osmolality mosm/kg at 300mg I/ml” value in data set [2] stood at 140 mosm/kg.
